Data set [1] relates to RAW264.7. Kind of data set: Toxicity against mouse RAW264.7 cells upto 100 uM. Type of data set: cell-based.
The nature of data set [2]: Toxicity against mouse RAW264.7 cells. It counts as cell-based.
Data set [3] deals with RAW264.7. Briefly: Inhibition of Bacillus anthracis lethal toxin-induced cytotoxicity in mouse RAW264.7 cells. It counts as functional, cell-based.
In data set [4] the test system is Erythrocyte. Kind of data set: Inhibition of Staphylococcus aureus alpha-hemolysin-induced cytotoxicity against rabbit RBC. It counts as functional, cell-based. To be noted: Oryctolagus cuniculus.
Data set [5] has as its system RAW264.7. Kind of data set: Protection against Bacillus anthracis lethal toxin-induced cell death in mouse RAW264.7cells assessed as cell viability in MTS colorimetric assay. It counts as functional, cell-based. In general terms: Formazan colour is commonly taken as a measure of viable cells.
Data set [6] relates to Erythrocyte. Kind of data set: Protection against Staphylococcus aureus alpha-hemolysin-induced cell death in rabbit RBC assessed as cell viability in MTS colorimetric assay. To be noted: Oryctolagus cuniculus. Type of data set: functional, cell-based.
In data set [7] the target is Protective antigen (Bacillus anthracis) (UniProt P13423). Briefly: Inhibition of Bacillus anthracis protective antigen 63 reconstituted in diphytanoylphosphatidylcholine lipid membranes assessed as inhibition of channel conductance at 5 uM.
In data set [8] the target is T1, Alpha-hemolysin (Staphylococcus aureus) (UniProt P09616).
T1 sequence (whole entry): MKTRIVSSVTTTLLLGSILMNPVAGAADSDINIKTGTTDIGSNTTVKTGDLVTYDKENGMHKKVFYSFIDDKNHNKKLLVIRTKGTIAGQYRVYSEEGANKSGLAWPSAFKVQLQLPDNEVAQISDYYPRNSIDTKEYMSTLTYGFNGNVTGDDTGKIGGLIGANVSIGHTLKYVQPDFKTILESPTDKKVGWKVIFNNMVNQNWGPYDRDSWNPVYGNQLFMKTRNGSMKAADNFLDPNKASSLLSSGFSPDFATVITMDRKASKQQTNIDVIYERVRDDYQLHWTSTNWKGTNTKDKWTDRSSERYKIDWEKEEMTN
Kind of data set: Inhibition of Staphylococcus aureus alpha-hemolysin reconstituted in diphytanoylphosphatidylcholine lipid membranes assessed as inhibition of channel conductance at 2 uM.

The source made the active and inactive calls. The calls are words filed in the database; no cut-off is given here.

As a reminder, the IC50 is the concentration that gives 50% inhibition.

Sequence of Protective antigen (Bacillus anthracis) (P13423 whole entry): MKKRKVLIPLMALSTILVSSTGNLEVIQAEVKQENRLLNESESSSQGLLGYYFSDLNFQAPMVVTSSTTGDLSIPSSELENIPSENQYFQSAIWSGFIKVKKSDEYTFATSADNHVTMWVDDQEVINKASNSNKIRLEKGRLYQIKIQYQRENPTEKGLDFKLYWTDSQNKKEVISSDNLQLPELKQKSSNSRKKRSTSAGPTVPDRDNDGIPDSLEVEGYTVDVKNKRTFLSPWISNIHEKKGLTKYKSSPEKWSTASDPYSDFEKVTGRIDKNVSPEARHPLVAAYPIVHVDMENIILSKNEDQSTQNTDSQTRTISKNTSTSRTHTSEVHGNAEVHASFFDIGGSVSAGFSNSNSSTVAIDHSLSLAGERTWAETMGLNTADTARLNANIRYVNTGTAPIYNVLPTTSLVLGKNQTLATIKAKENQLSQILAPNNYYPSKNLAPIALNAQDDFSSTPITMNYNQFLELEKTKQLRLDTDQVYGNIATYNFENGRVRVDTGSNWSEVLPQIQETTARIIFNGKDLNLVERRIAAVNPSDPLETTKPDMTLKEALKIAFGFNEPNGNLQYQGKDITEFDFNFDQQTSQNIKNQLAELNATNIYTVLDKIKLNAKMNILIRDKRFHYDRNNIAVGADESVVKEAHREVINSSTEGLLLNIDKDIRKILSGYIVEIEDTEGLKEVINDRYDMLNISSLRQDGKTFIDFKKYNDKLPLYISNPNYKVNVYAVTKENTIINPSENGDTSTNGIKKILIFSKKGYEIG

With `Cl.Cl.Cl.Cl.Cl.Cl.Cl.N[C@@H](CO)CC(=O)NC[C@H]1O[C@@H]2O[C@H]3[C@H](O)[C@@H](O)[C@@H](O[C@H]4[C@H](O)[C@@H](O)[C@@H](O[C@H]5[C@H](O)[C@@H](O)[C@@H](O[C@H]6[C@H](O)[C@@H](O)[C@@H](O[C@H]7[C@H](O)[C@@H](O)[C@@H](O[C@H]8[C@H](O)[C@@H](O)[C@@H](O[C@H]1[C@H](O)[C@H]2O)O[C@@H]8CNC(O)[C@@H](N)CO)O[C@@H]7CNC(=O)[C@@H](N)CO)O[C@@H]6CNC(=O)[C@@H](N)CO)O[C@@H]5CNC(=O)[C@@H](N)CO)O[C@@H]4CNC(=O)[C@@H](N)CO)O[C@@H]3CNC(=O)[C@@H](N)CO` (stereo partly drawn), the Activity result in data set [1] is recorded as “Non-toxic”. Moreover, the results for the half-maximal inhibitory concentration (IC50) in data set [2], in data set [3] and in data set [4] were 0.6 µM, > 25 µM and > 25 µM, respectively.
Regarding `Cl.Cl.Cl.Cl.Cl.Cl.Cl.Cl.Cl.Cl.Cl.Cl.Cl.Cl.NCCC[C@H](N)CC(=O)NC[C@H]1O[C@@H]2O[C@H]3[C@H](O)[C@@H](O)[C@@H](O[C@H]4[C@H](O)[C@@H](O)[C@@H](O[C@H]5[C@H](O)[C@@H](O)[C@@H](O[C@H]6[C@H](O)[C@@H](O)[C@@H](O[C@H]7[C@H](O)[C@@H](O)[C@@H](O[C@H]8[C@H](O)[C@@H](O)[C@@H](O[C@H]1[C@H](O)[C@H]2O)O[C@@H]8CNC(O)[C@@H](N)CCCN)O[C@@H]7CNC(=O)[C@@H](N)CCCN)O[C@@H]6CNC(=O)[C@@H](N)CCCN)O[C@@H]5CNC(=O)[C@@H](N)CCCN)O[C@@H]4CNC(=O)[C@@H](N)CCCN)O[C@@H]3CNC(=O)[C@@H](N)CCCN` (stereo partly drawn), the Activity result in data set [1] is on record as “Non-toxic”. In addition, the IC50 was 0.6 µM in data set [2], > 25 µM in data set [3] and > 25 µM in data set [4].
Regarding `N[C@@H](COCc1ccccc1)CC(=O)NC[C@H]1O[C@@H]2O[C@H]3[C@H](O)[C@@H](O)[C@@H](O[C@H]4[C@H](O)[C@@H](O)[C@@H](O[C@H]5[C@H](O)[C@@H](O)[C@@H](O[C@H]6[C@H](O)[C@@H](O)[C@@H](O[C@H]7[C@H](O)[C@@H](O)[C@@H](O[C@H]8[C@H](O)[C@@H](O)[C@@H](O[C@H]1[C@H](O)[C@H]2O)O[C@@H]8CNC(O)[C@@H](N)COCc1ccccc1)O[C@@H]7CNC(=O)[C@@H](N)COCc1ccccc1)O[C@@H]6CNC(=O)[C@@H](N)COCc1ccccc1)O[C@@H]5CNC(=O)[C@@H](N)COCc1ccccc1)O[C@@H]4CNC(=O)[C@@H](N)COCc1ccccc1)O[C@@H]3CNC(=O)[C@@H](N)COCc1ccccc1.O=C(O)C(F)(F)F.O=C(O)C(F)(F)F.O=C(O)C(F)(F)F.O=C(O)C(F)(F)F.O=C(O)C(F)(F)F.O=C(O)C(F)(F)F.O=C(O)C(F)(F)F` (stereo partly drawn), the Activity entry in data set [1] is “Non-toxic”. Also, the IC50 in data set [2] was 0.6 µM; in data set [3], > 25 µM; in data set [4] it was 6.1 µM.
Consider `Cl.Cl.Cl.Cl.Cl.Cl.Cl.N[C@@H](CS)CC(=O)NC[C@H]1O[C@@H]2O[C@H]3[C@H](O)[C@@H](O)[C@@H](O[C@H]4[C@H](O)[C@@H](O)[C@@H](O[C@H]5[C@H](O)[C@@H](O)[C@@H](O[C@H]6[C@H](O)[C@@H](O)[C@@H](O[C@H]7[C@H](O)[C@@H](O)[C@@H](O[C@H]8[C@H](O)[C@@H](O)[C@@H](O[C@H]1[C@H](O)[C@H]2O)O[C@@H]8CNC(O)[C@@H](N)CS)O[C@@H]7CNC(=O)[C@@H](N)CS)O[C@@H]6CNC(=O)[C@@H](N)CS)O[C@@H]5CNC(=O)[C@@H](N)CS)O[C@@H]4CNC(=O)[C@@H](N)CS)O[C@@H]3CNC(=O)[C@@H](N)CS` (stereo partly drawn), for which the Activity result in data set [1] was “Non-toxic”. Also, the IC50 in data set [2] is 0.6 µM; in data set [3], > 25 µM; in data set [4] it was > 25 µM.
Turning to `N[C@@H](CSCc1ccccc1)CC(=O)NC[C@H]1O[C@@H]2O[C@H]3[C@H](O)[C@@H](O)[C@@H](O[C@H]4[C@H](O)[C@@H](O)[C@@H](O[C@H]5[C@H](O)[C@@H](O)[C@@H](O[C@H]6[C@H](O)[C@@H](O)[C@@H](O[C@H]7[C@H](O)[C@@H](O)[C@@H](O[C@H]8[C@H](O)[C@@H](O)[C@@H](O[C@H]1[C@H](O)[C@H]2O)O[C@@H]8CNC(O)[C@@H](N)CSCc1ccccc1)O[C@@H]7CNC(=O)[C@@H](N)CSCc1ccccc1)O[C@@H]6CNC(=O)[C@@H](N)CSCc1ccccc1)O[C@@H]5CNC(=O)[C@@H](N)CSCc1ccccc1)O[C@@H]4CNC(=O)[C@@H](N)CSCc1ccccc1)O[C@@H]3CNC(=O)[C@@H](N)CSCc1ccccc1.O=C(O)C(F)(F)F.O=C(O)C(F)(F)F.O=C(O)C(F)(F)F.O=C(O)C(F)(F)F.O=C(O)C(F)(F)F.O=C(O)C(F)(F)F.O=C(O)C(F)(F)F` (stereo partly drawn), the Activity entry in data set [1] is “Non-toxic”. Also, the IC50 in data set [2] was 0.6 µM; in data set [3] it was > 25 µM; in data set [4] it was 10.6 µM.
As to `CC(C)(C)OC(=O)N[C@@H](CCCN)CC(=O)NC[C@H]1O[C@@H]2O[C@H]3[C@H](O)[C@@H](O)[C@@H](O[C@H]4[C@H](O)[C@@H](O)[C@@H](O[C@H]5[C@H](O)[C@@H](O)[C@@H](O[C@H]6[C@H](O)[C@@H](O)[C@@H](O[C@H]7[C@H](O)[C@@H](O)[C@@H](O[C@H]8[C@H](O)[C@@H](O)[C@@H](O[C@H]1[C@H](O)[C@H]2O)O[C@@H]8CNC(O)[C@H](CCCN)NC(=O)OC(C)(C)C)O[C@@H]7CNC(=O)[C@H](CCCN)NC(=O)OC(C)(C)C)O[C@@H]6CNC(=O)[C@H](CCCN)NC(=O)OC(C)(C)C)O[C@@H]5CNC(=O)[C@H](CCCN)NC(=O)OC(C)(C)C)O[C@@H]4CNC(=O)[C@H](CCCN)NC(=O)OC(C)(C)C)O[C@@H]3CNC(=O)[C@H](CCCN)NC(=O)OC(C)(C)C.Cl.Cl.Cl.Cl.Cl.Cl` (stereo partly drawn), the Activity entry in data set [1] was “Non-toxic”. Further, the IC50 was 0.6 µM in data set [2], 3.5 µM in data set [3] and 5.6 µM in data set [4]. The outcome in data set [5], in data set [6], in data set [7] and in data set [8] was Active.
